Assay results reported in patent publication US11426367B2, “Methods of treating substance abuse” (Perception Neuroscience, Inc., priority 2018, dated 2022).

Legend:
Control C57/B6 mice [1] = assay: Prepulse inhibition test in control mice; conditions: control mice, 5, 10 or 20 mg/kg
Experimental: PP69, PP73, PP77, and PP81 mean that stimuli at 69, 73, 77, and 81 dB for more than 20 milliseconds were presented 100 milliseconds before a 110-dB pulse, respectively. Data analysis was performed by Wilks Lambda, which is multivariate analysis of variance (Example 3).
The prepulse inhibition test was performed using a startle response system (SR-LAB, SanDiego Instruments, San Diego, Calif., United States). The analysis of the results of prepulse inhibition was performed by multivariate analysis of variance (MANOVA), followed by a least significant difference test (LSD test). Data are presented as the mean plus minus standard error of the mean (n=10 to 12 mice/group). *p<0.05 and p<0.01 indicate significant differences as compared to a group injected with saline.

[2] = system: dopamine release in the striatum; conditions: imaging studies in nonhuman primates; Hashimoto et al., 2017; cited from earlier work
[3] = system: social defeat stress mice; assay: 1% sucrose preference test (SPT), social defeat stress model; assay type: in vivo; conditions: 10 mg/kg i.p.
Experimental: (§1) A social defeat stress model of depression was prepared by bringing C57/B6 male mice into contact with ICR male mice (large aggressive mice) for 10 consecutive days to apply a stress called a “social defeat stress” in accordance with the previous report (Non Patent Literature 19). […] Specifically, an increase in immobility time was found in each of a tail suspension test (TST) and a forced swimming test (FST).
(§2) The preparation of the animal model of depression and the administration of the agent were specifically performed as described below (FIG. 3A). Male C57/B6 mice (7-week-old, Japan SLC, Inc., Hamamatsu, Japan) and ICR mice (9-week-old, Japan SLC, Inc., Hamamatsu, Japan) were used. The mice were given free access to water and feed. A social defeat stress was applied by housing one C57/B6 mouse with one ICR mouse for 10 days.
(§3) The antidepressant effects of the agent were investigated by behavioral tests such as the TST, the PST, the LMT, and a 1% sucrose preference test (SPT) (FIG. 3A). The 1% sucrose preference test (SPT) was performed on 1 day and 6 days after the injection of ketamine. Each of the TST and the PST was performed on 2 days and 7 days after the injection of ketamine. The TST was performed as described below. First, the mice were taken out from cages, and then a small piece of an adhesive tape was bonded onto a portion approximately 2 cm away from the tip of the tail of the mice. A small hole was opened in the small piece, and the mice were each fixed upside down on a hook through the small hole. The immobility time of each mouse was recorded for 10 minutes. Mice were considered immobile only when they hung passively and completely motionless. The immobility time increases in a depressive state. The PST was performed as described below. First, the mice were placed individually in a cylinder (diameter: 23 cm; height: 31 cm) containing 15 cm of water, maintained at 22 to 24 deg C. The mice were tested in an automated forced-swimming apparatus using SCANET MV-40 ([…] Co., Ltd., Toyama, Japan). The immobility time was calculated as a value obtained by subtracting active time from total time, using the analysis software of the apparatus. Cumulative immobility time was recorded over 6 minutes during a test period. The LMT was performed as described below. First, the mice were placed in experimental cages (length×width×height: 560×560×330 mm). The locomotor activity of the mice was counted with SCANET MV-40, and the cumulative exercise of the mice was recorded for 60 minutes. The cages were cleaned between testing session. The immobility time increases in a depressive state. […] A spine density was quantitatively evaluated by observation with a KEYENCE microscope (BZ-9000, Osaka, Japan).

Control C57/B6 mice [4] = assay: Conditioned place preference test (dependence test) in control mice; conditions: control mice, 5, 10 or 20 mg/kg, injected on day 4, 6 and 8, test on day 11
Experimental: 15-minute habituation was performed for 3 days. Then, 30-minute conditioning was performed on day 4 to day 10, and a behavioral evaluation test was performed on day 11. Saline was injected on day 5, day 7, and day 9. […] In each of the groups, the injection was performed three times, i.e., on day 4, day 6, and day 8. Saline means a group injected with saline.
The administration of an agent was performed by the same methods as the methods described in Example 2.
The place preference test was performed using a conditioned place preference test apparatus (BrainScienceIdea Co., Ltd., Osaka, Japan). The analysis of the results of the place preference test was performed by one-way analysis of variance (one-way ANOVA), followed by a least significant difference test (LSD test). Data are presented as the mean plus minus standard error of the mean (n=9 or 10 mice/group). *p<0.05 and **p<0.01 indicate significant differences as compared to a group injected with saline.

[5] = system: rewarding effects of morphine; assay: Morphine-induced conditioned place preference; assay type: in vivo, mice; conditions: for Morphine CPP, dose blocking the rewarding effects of morphine: Table 11, Present study
Experimental: The methods for conditioned place preference and evaluation of R-ketamine were conducted using the general methods of Suzuki et al. (2000). The general design was to dose mice with either saline+saline, saline+morphine, or R-ketamine+morphine and evaluate their preference for the morphine-associated place.
Male ddY mice (20-23 g) were obtained from Tokyo Experimental Animals Inc. (Tokyo, Japan). The ddY mice were bred in a closed colony. The mice were housed at a temperature of 22 f 1° C. with a 12-h light-dark cycle (light on 8:30 a.m. to 8:30 p.m.). Food and water were available ad libitum.
Place conditioning was conducted as described previously, using a minor modification of a biased procedure according to Suzuki et al. (2000). The apparatus consisted of a shuttlebox (15×30×15 cm: w×l×h) made of an acryl-resin board. The box was divided into two compartments of equal size by means of a sliding partition. One compartment was white with a textured floor; the other was black with a smooth floor. For conditioning mice were immediately conditioned to the white compartment following drug injection and to the black compartment following vehicle injection.
Conditioning sessions were conducted once daily for 6 consecutive days. […] Preference for a particular place was assessed in the drug-free state after placing the animals on the neutral platform and allowing them free access to both compartments. The time spent in each compartment during a 900-sec session was then measured automatically in a blinded fashion by two infrared beam sensors (KN-80, Natsume Seisakusyo, Tokyo, Japan) on the covers (3 cm from the center and the side) of the white and black compartments. […]
Conditioning scores represent the time spent in the drug-paired place minus the time spent in the vehicle-paired place, and are expressed as the mean±S.E.M. Behavioral data were evaluated statistically with a one-way analysis of variance (ANOVA) followed by Dunnett's test to determine whether individual doses produced significant conditioning.

[6] = system: social defeat stress mice; assay: Tail suspension test (TST), social defeat stress model; assay type: in vivo; conditions: 10 mg/kg i.p.
Experimental: as §1, §2, §3

SMILES	prepulse inhibition (Control C57/B6 mice [1])	dopamine release in the striatum [2]	sucrose consumption preference in the SPT ([3]; 1 day after injection)	sucrose consumption preference in the SPT ([3]; 6 days after injection)	CPP score (conditioned place preference test) (Control C57/B6 mice [4])	conditioned place preference induced by morphine ([5]; 10 mg/kg i.p. co-dosed with morphine 5 mg/kg i.p., F(2,29)=2.2, p=0.064)	Morphine CPP, dose blocking the rewarding effects of morphine [5]	immobility time in the TST ([6]; 2 days after injection)	immobility time in the TST ([6]; 7 days after injection)
CN[C@@]1(c2ccccc2Cl)CCCCC1=O.Cl [R(−)-ketamine]	did not disrupt prepulse inhibition	not	sucrose consumption preference significantly increased	significantly restored the sucrose consumption preference	did not increase the CPP score	trend toward significant attenuation	10 mg/kg	markedly reduced the immobility time	significantly reduced the immobility time
CN[C@]1(c2ccccc2Cl)CCCCC1=O [S(+)-ketamine]	disrupted prepulse inhibition in a dose-dependent manner	increases dopamine release in the striatum	sucrose consumption preference significantly increased	significantly restored the sucrose consumption preference	increased the CPP score in a dose-dependent manner		10 mg/kg	markedly reduced the immobility time	significantly reduced the immobility time
